Data from ChEMBL document CHEMBL1145438, “Synthesis and matrix metalloproteinase (MMP)-12 inhibitory activity of ageladine A and its analogs” (Bioorg Med Chem Lett, 2007).

Biological target: Macrophage metalloelastase (Homo sapiens, UniProt P39900)
Assay: Inhibition of MMP12

Sequence of Macrophage metalloelastase (P39900 whole entry): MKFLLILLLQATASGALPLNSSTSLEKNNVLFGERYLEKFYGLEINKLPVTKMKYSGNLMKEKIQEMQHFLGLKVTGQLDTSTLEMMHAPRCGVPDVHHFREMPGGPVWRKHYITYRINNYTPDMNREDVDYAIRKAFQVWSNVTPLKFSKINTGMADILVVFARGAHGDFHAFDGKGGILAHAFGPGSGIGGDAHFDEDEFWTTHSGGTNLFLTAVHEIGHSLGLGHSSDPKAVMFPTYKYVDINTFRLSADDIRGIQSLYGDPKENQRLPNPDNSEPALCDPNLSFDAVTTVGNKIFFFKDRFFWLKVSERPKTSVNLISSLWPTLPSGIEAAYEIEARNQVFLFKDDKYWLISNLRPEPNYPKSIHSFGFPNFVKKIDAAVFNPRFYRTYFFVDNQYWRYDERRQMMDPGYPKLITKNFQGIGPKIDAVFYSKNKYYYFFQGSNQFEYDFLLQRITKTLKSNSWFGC

| Compound | IC50 |
| --- | --- |
| CNc1nc2c(-c3cc(Br)c(Br)[nH]3)nccc2n1C | > 100 µM |
| Nc1nc2c(-c3ccc[nH]3)nccc2[nH]1 | > 100 µM |
| Cn1c(-c2nccc3[nH]c(N)nc23)cc(Br)c1Br | > 100 µM |
| Nc1nc2c(-c3cc(Br)c[nH]3)nccc2[nH]1 | > 100 µM |
| Cn1c(N)nc2c(-c3cc(Br)c(Br)[nH]3)nccc21 | 56.9 µM |
| Nc1nc2c(-c3ccc(Br)[nH]3)nccc2[nH]1 | > 100 µM |

Next, values leading:

| IC50 | Compound |
| --- | --- |
| > 100 µM | CN(C)c1nc2c(-c3cc(Br)c(Br)[nH]3)nccc2[nH]1 |
| 43.6 µM | Brc1cc(-c2nccc3[nH]cnc23)[nH]c1Br |
| 10.4 µM | CNc1nc2c(-c3cc(Br)c(Br)[nH]3)nccc2[nH]1 |
| 3.66 µM | Nc1nc2c(-c3cc(Br)c(Br)[nH]3)nccc2[nH]1 [AGELADINE A] |
